# Assay results taken from patent US20020155422A1, “Methods for analyzing dynamic changes in cellular informatics and uses therefor” (priority 2000, published 2002).
# Tested on: HL-60 cells
# Assay: Gene expression profiling (Resgen microarray filters) of HL-60 cells stimulated to differentiate into neutrophils, time course
# Format: cell-based, human
# Conditions: for Normalized expression level of gene W95428 / Normalized expression level of gene W96205 / Normalized expression level of gene W96450 / Normalized expression level of gene W96463: HL-60 cells, retinoic acid induced switch, normalized to T = 0 level
# From the text: Given the value of understanding the genetic basis of the switch between different hematopoietic stem cell lineages, a well-characterized human pluripotent precursor cell line—the HL 60 promyeloid leukemia cell line—provides a useful model system. HL 60 precursors cells can be induced to switch to granulocytes, monocytes, or macrophages based on alterations in experimental conditions. […] Established molecular methods (e.g., immunocytochemistry, FACS cell sorting, SDS-PAGE, Western blots, Northern blots, or other biochemical or molecular biological techniques) can be used to identify cells that have switched, between different phenotypes. These methods can be used to identify experimental conditions necessary to optimally acquire the baseline data for analysis according to methods of the invention, including information on the dose-response for the transition between different cell states and the time required for a stimulated cell to undergo the transition and reach a new steady state. Additional insight into the molecules involved in cell regulation may be gained by carrying out analysis of cells under various experimental conditions that induce forward and reverse transitions between the same two states by adding or removing a common stimulus as well as by analysis of convergent transition processes that involve switching to a common cell state using different stimuli and divergent transition process that involve switching from one state to two different attractor states using different perturbations. […] The latter would lead to a perturbation of the attractor state to various degrees with subsequent relaxation back to the same attractor along distinct trajectories.
# Cell state transitions that may be studied and characterized in the HL60 model system include: A) induction of a transition from HL60 precursor to a granulocyteby treatment with DMSO; B) induction of a reverse transition from granulocyte to HL60 by removing DMSO; C) induction of a transition from HL60 precursor to granulocyte using all-trans-retinoid acid; D) induction of a reverse transition from granulocytes to HL60 precursors by removing all-trans-retinoid acid; E) induction of a transition from HL60 precursors to a monocyte(s) by addition of NaButyrate; and F) induction of a transition from HL60 precursors to a macrophage(s) by addition of TPA. This approach was used to analyze two convergent processes of HL-60 cell transition from precursor to neutrophil states after stimulation with DMSO and retinoic acid (transitions A and C, respectively). In this experiment, only a relatively low number of genes (<300) were analyzed over 7 time points.
# HL-60 cells (1.5×10^6 cells/ml) were stimulated in parallel cultures to differentiate into neutrophils along two different but convergent paths by treatment with DMSO (S1 path) or retinoic acid (S2 path). At each time point, RNA was harvested from both cultures using RNeasy extraction kit (Qiagen) and subjected to gene expression profiling using Resgen microarray filters from Research Genetics/Invitrogen (the gene filter contains 5000 human cDNAs that were pre-spotted on a 5×7 cm nylon membrane and then hybridized with radioactively labeled cDNA made from total cellular RNA). […] Expression levels for each gene were normalized to the 0 time point level for that gene (untreated reference). Genes with expression levels below a 4 fold change relative to the 0 reference were excluded from the analysis. In this analysis, an inter-trajectory distance representation was used to compare different trajectories with the cell state space and to identify common paths in cell state transition processes. For each time point, a state vector of length 281 genes was defined for each of the two processes S1(t) and S2(t). […]
compound,measurement,setting,value
CC1=C(/C=C/C(C)=C/C=C/C(C)=C/C(=O)O)C(C)(C)CCC1 [retinoic acid],Normalized expression level of gene W95428,2 hours,1.049
same,Normalized expression level of gene W96205,2 hours,0.9014
same,Normalized expression level of gene W96450,2 hours,0.8141
same,Normalized expression level of gene W96463,2 hours,0.9136
same,Normalized expression level of gene W95428,Day 2,1.003
same,Normalized expression level of gene W96205,Day 2,0.931
same,Normalized expression level of gene W96450,Day 2,0.8573
same,Normalized expression level of gene W96463,Day 2,0.9058
same,Normalized expression level of gene W95428,Day 3,0.9532
same,Normalized expression level of gene W96205,Day 3,0.9937
same,Normalized expression level of gene W96450,Day 3,0.6712
same,Normalized expression level of gene W96463,Day 3,0.8109
same,Normalized expression level of gene W95428,Day 4,0.9982
same,Normalized expression level of gene W96205,Day 4,0.9089
same,Normalized expression level of gene W96450,Day 4,0.8387
same,Normalized expression level of gene W96463,Day 4,0.8458
same,Normalized expression level of gene W95428,Day 5,0.9605
same,Normalized expression level of gene W96205,Day 5,0.9604
same,Normalized expression level of gene W96450,Day 5,1.17
same,Normalized expression level of gene W96463,Day 5,0.841
same,Normalized expression level of gene W95428,Day 7,0.954
same,Normalized expression level of gene W96205,Day 7,0.9732
same,Normalized expression level of gene W96450,Day 7,1.087
same,Normalized expression level of gene W96463,Day 7,0.8014
C[S+](C)[O-] [DMSO],"inter-trajectory distance DT(t) (squared Euclidean distance between state vectors S1(t), S2(t))","HL-60 cells 1.5×10^6 cells/ml, DMSO (S1 path) versus retinoic acid (S2 path), 281 genes, 7 time points, FIG. 7",converge on the same differentiation state
